{
  "source": "PubChem BioAssay AID1259407",
  "about": "(Chemical Carcinogenesis Research Information System (CCRIS), 2018)",
  "test_system": "CCRIS mutagenicity, Ames/micronucleus/aberration tests",
  "test": "CCRIS mutagenicity studies",
  "key": {"[1]": {"conditions": "Test System: AMES SALMONELLA TYPHIMURIUM, Strain/Indicator: TA98, Metabolic Activation: NONE, Method: PREINCUBATION"}, "[2]": {"conditions": "Test System: AMES SALMONELLA TYPHIMURIUM, Strain/Indicator: TA100, Metabolic Activation: NONE, Method: PREINCUBATION"}},
  "note": "The source made the active and inactive calls. No rule for the calls is given here.",
  "data": [
    {"smiles": "Oc1c(Cl)ccc(Cl)c1Cl", "values": [
      {"measurement": "mutagenic call", "setting": "End Point: IN VITRO CHROMOSOMAL ABERRATIONS, Test System: CHINESE HAMSTER LUNG CELLS (CHL), Metabolic Activation: RAT, LIVER, S-9, KC-400", "value": "active; positive (structural changes)"},
      {"measurement": "mutagenic call", "setting": "End Point: IN VITRO CHROMOSOMAL ABERRATIONS, Test System: CHINESE HAMSTER OVARY CELLS (CHO), Metabolic Activation: NONE", "value": "active; positive (structural changes)"},
      {"measurement": "mutagenic call", "setting": "End Point: IN VITRO CHROMOSOMAL ABERRATIONS, Test System: CHINESE HAMSTER OVARY CELLS (CHO), Metabolic Activation: RAT, LIVER, S-9, AROCLOR 1254", "value": "active; positive (structural changes)"},
      {"measurement": "mutagenic call", "setting": "Test System: AMES SALMONELLA TYPHIMURIUM, Strain/Indicator: TA97, Metabolic Activation: HAMSTER, LIVER, S-9, AROCLOR 1254 (10%), Method: PREINCUBATION", "value": "inactive; negative"},
      {"measurement": "mutagenic call", "setting": "Test System: AMES SALMONELLA TYPHIMURIUM, Strain/Indicator: TA97, Metabolic Activation: HAMSTER, LIVER, S-9, AROCLOR 1254 (30%), Method: PREINCUBATION", "value": "inactive; negative"},
      {"measurement": "mutagenic call", "setting": "Test System: AMES SALMONELLA TYPHIMURIUM, Strain/Indicator: TA97, Metabolic Activation: NONE, Method: PREINCUBATION", "value": "inactive; negative"},
      {"measurement": "mutagenic call", "setting": "Test System: AMES SALMONELLA TYPHIMURIUM, Strain/Indicator: TA97, Metabolic Activation: NONE, Method: STANDARD PLATE", "value": "inactive; negative"},
      {"measurement": "mutagenic call", "setting": "Test System: AMES SALMONELLA TYPHIMURIUM, Strain/Indicator: TA97, Metabolic Activation: RAT, LIVER, S-9, AROCLOR 1254 (10%), Method: PREINCUBATION", "value": "inactive; negative"},
      {"measurement": "mutagenic call", "setting": "Test System: AMES SALMONELLA TYPHIMURIUM, Strain/Indicator: TA97, Metabolic Activation: RAT, LIVER, S-9, AROCLOR 1254 (30%), Method: PREINCUBATION", "value": "inactive; negative"},
      {"measurement": "mutagenic call", "setting": "Test System: AMES SALMONELLA TYPHIMURIUM, Strain/Indicator: TA97, Metabolic Activation: RAT, LIVER, S-9, AROCLOR 1254, Method: STANDARD PLATE", "value": "inactive; negative"},
      {"measurement": "mutagenic call", "setting": "Test System: AMES SALMONELLA TYPHIMURIUM, Strain/Indicator: TA98, Metabolic Activation: HAMSTER, LIVER, S-9, AROCLOR 1254 (10%), Method: PREINCUBATION", "value": "inactive; negative"},
      {"measurement": "mutagenic call", "setting": "Test System: AMES SALMONELLA TYPHIMURIUM, Strain/Indicator: TA98, Metabolic Activation: HAMSTER, LIVER, S-9, AROCLOR 1254 (30%), Method: PREINCUBATION", "value": "inactive; negative"},
      {"measurement": "mutagenic call", "setting": "[1]", "value": "inactive; negative"},
      {"measurement": "mutagenic call", "setting": "Test System: AMES SALMONELLA TYPHIMURIUM, Strain/Indicator: TA98, Metabolic Activation: NONE, Method: STANDARD PLATE", "value": "inactive; negative"},
      {"measurement": "mutagenic call", "setting": "Test System: AMES SALMONELLA TYPHIMURIUM, Strain/Indicator: TA98, Metabolic Activation: RAT, LIVER, S-9, AROCLOR 1254 (10%), Method: PREINCUBATION", "value": "inactive; negative"},
      {"measurement": "mutagenic call", "setting": "Test System: AMES SALMONELLA TYPHIMURIUM, Strain/Indicator: TA98, Metabolic Activation: RAT, LIVER, S-9, AROCLOR 1254 (30%), Method: PREINCUBATION", "value": "inactive; negative"},
      {"measurement": "mutagenic call", "setting": "Test System: AMES SALMONELLA TYPHIMURIUM, Strain/Indicator: TA98, Metabolic Activation: RAT, LIVER, S-9, AROCLOR 1254, Method: STANDARD PLATE", "value": "active; positive"},
      {"measurement": "mutagenic call", "setting": "Test System: AMES SALMONELLA TYPHIMURIUM, Strain/Indicator: TA100, Metabolic Activation: HAMSTER, LIVER, S-9, AROCLOR 1254 (10%), Method: PREINCUBATION", "value": "inactive; negative"},
      {"measurement": "mutagenic call", "setting": "Test System: AMES SALMONELLA TYPHIMURIUM, Strain/Indicator: TA100, Metabolic Activation: HAMSTER, LIVER, S-9, AROCLOR 1254 (30%), Method: PREINCUBATION", "value": "inactive; negative"},
      {"measurement": "mutagenic call", "setting": "[2]", "value": "inactive; negative"},
      {"measurement": "mutagenic call", "setting": "Test System: AMES SALMONELLA TYPHIMURIUM, Strain/Indicator: TA100, Metabolic Activation: NONE, Method: STANDARD PLATE", "value": "inactive; negative"},
      {"measurement": "mutagenic call", "setting": "Test System: AMES SALMONELLA TYPHIMURIUM, Strain/Indicator: TA100, Metabolic Activation: RAT, LIVER, S-9, AROCLOR 1254 (10%), Method: PREINCUBATION", "value": "inactive; negative"},
      {"measurement": "mutagenic call", "setting": "Test System: AMES SALMONELLA TYPHIMURIUM, Strain/Indicator: TA100, Metabolic Activation: RAT, LIVER, S-9, AROCLOR 1254 (30%), Method: PREINCUBATION", "value": "inactive; negative"},
      {"measurement": "mutagenic call", "setting": "Test System: AMES SALMONELLA TYPHIMURIUM, Strain/Indicator: TA100, Metabolic Activation: RAT, LIVER, S-9, AROCLOR 1254, Method: STANDARD PLATE", "value": "inactive; negative"},
      {"measurement": "mutagenic call", "setting": "Test System: AMES SALMONELLA TYPHIMURIUM, Strain/Indicator: TA104, Metabolic Activation: NONE, Method: STANDARD PLATE", "value": "inactive; negative"},
      {"measurement": "mutagenic call", "setting": "Test System: AMES SALMONELLA TYPHIMURIUM, Strain/Indicator: TA104, Metabolic Activation: RAT, LIVER, S-9, AROCLOR 1254, Method: STANDARD PLATE", "value": "inactive; negative"},
      {"measurement": "mutagenic call", "setting": "Test System: AMES SALMONELLA TYPHIMURIUM, Strain/Indicator: TA1535, Metabolic Activation: HAMSTER, LIVER, S-9, AROCLOR 1254 (10%), Method: PREINCUBATION", "value": "inactive; negative"},
      {"measurement": "mutagenic call", "setting": "Test System: AMES SALMONELLA TYPHIMURIUM, Strain/Indicator: TA1535, Metabolic Activation: HAMSTER, LIVER, S-9, AROCLOR 1254 (30%), Method: PREINCUBATION", "value": "inactive; negative"},
      {"measurement": "mutagenic call", "setting": "Test System: AMES SALMONELLA TYPHIMURIUM, Strain/Indicator: TA1535, Metabolic Activation: NONE, Method: PREINCUBATION", "value": "inactive; negative"},
      {"measurement": "mutagenic call", "setting": "Test System: AMES SALMONELLA TYPHIMURIUM, Strain/Indicator: TA1535, Metabolic Activation: RAT, LIVER, S-9, AROCLOR 1254 (10%), Method: PREINCUBATION", "value": "inactive; negative"},
      {"measurement": "mutagenic call", "setting": "Test System: AMES SALMONELLA TYPHIMURIUM, Strain/Indicator: TA1535, Metabolic Activation: RAT, LIVER, S-9, AROCLOR 1254 (30%), Method: PREINCUBATION", "value": "inactive; negative"},
      {"measurement": "mutagenic call", "setting": "Test System: AMES SALMONELLA TYPHIMURIUM, Strain/Indicator: TA1537, Metabolic Activation: HAMSTER, LIVER, S-9, AROCLOR 1254 (30%), Method: PREINCUBATION", "value": "inactive; negative"},
      {"measurement": "mutagenic call", "setting": "Test System: AMES SALMONELLA TYPHIMURIUM, Strain/Indicator: TA1537, Metabolic Activation: NONE, Method: PREINCUBATION", "value": "inactive; negative"},
      {"measurement": "mutagenic call", "setting": "Test System: AMES SALMONELLA TYPHIMURIUM, Strain/Indicator: TA1537, Metabolic Activation: RAT, LIVER, S-9, AROCLOR 1254 (30%), Method: PREINCUBATION", "value": "inactive; negative"}
    ]},
    {"smiles": "CC(=O)Nc1ccc2c(c1)Cc1cc(NC(C)=O)ccc1-2", "values": [
      {"measurement": "mutagenic call", "setting": "Test System: AMES SALMONELLA TYPHIMURIUM, Strain/Indicator: TA1538, Metabolic Activation: RAT, LIVER, S-9, PHENOBARBITAL, Method: STANDARD PLATE", "value": "active; positive"}
    ]},
    {"smiles": "CC1=CC(=O)C=C(C)C1=O", "values": [
      {"measurement": "mutagenic call", "setting": "[1]", "value": "inactive; negative"},
      {"measurement": "mutagenic call", "setting": "Test System: AMES SALMONELLA TYPHIMURIUM, Strain/Indicator: TA98, Metabolic Activation: RAT, LIVER, S-9, PHENOBARBITAL AND 5,6-BENZOFLAVONE, Method: PREINCUBATION", "value": "inactive; negative"},
      {"measurement": "mutagenic call", "setting": "[2]", "value": "inactive; negative"},
      {"measurement": "mutagenic call", "setting": "Test System: AMES SALMONELLA TYPHIMURIUM, Strain/Indicator: TA100, Metabolic Activation: RAT, LIVER, S-9, PHENOBARBITAL AND 5,6-BENZOFLAVONE, Method: PREINCUBATION", "value": "inactive; negative"},
      {"measurement": "mutagenic call", "setting": "Test System: AMES SALMONELLA TYPHIMURIUM, Strain/Indicator: TA102, Metabolic Activation: NONE, Method: PREINCUBATION", "value": "inactive; negative"},
      {"measurement": "mutagenic call", "setting": "Test System: AMES SALMONELLA TYPHIMURIUM, Strain/Indicator: TA102, Metabolic Activation: RAT, LIVER, S-9, PHENOBARBITAL AND 5,6-BENZOFLAVONE, Method: PREINCUBATION", "value": "inactive; negative"},
      {"measurement": "mutagenic call", "setting": "Test System: AMES SALMONELLA TYPHIMURIUM, Strain/Indicator: TA104, Metabolic Activation: NONE, Method: PREINCUBATION", "value": "inactive; negative"},
      {"measurement": "mutagenic call", "setting": "Test System: AMES SALMONELLA TYPHIMURIUM, Strain/Indicator: TA104, Metabolic Activation: RAT, LIVER, S-9, PHENOBARBITAL AND 5,6-BENZOFLAVONE, Method: PREINCUBATION", "value": "inactive; negative"},
      {"measurement": "mutagenic call", "setting": "Test System: AMES SALMONELLA TYPHIMURIUM, Strain/Indicator: TA2637, Metabolic Activation: NONE, Method: PREINCUBATION", "value": "active; positive"},
      {"measurement": "mutagenic call", "setting": "Test System: AMES SALMONELLA TYPHIMURIUM, Strain/Indicator: TA2637, Metabolic Activation: RAT, LIVER, S-9, PHENOBARBITAL AND 5,6-BENZOFLAVONE, Method: PREINCUBATION", "value": "inactive; negative"}
    ]}
  ]
}
